Data as given in patent US7402548B2, “Benzoxazole compounds, process for producing the same and herbicides” (Kyoyu Agri Co., Ltd., priority 2000, dated 2008).

Tests used:
barnyard grass [1] = experiment: Herbicidal test for paddy field; assay type: in vivo, Eschinochloa crusgalli; details: 500 g/ha, dropwise addition to paddy water at 1.5 leaf stage of barnyard grass; glass house 25° C., 3 weeks; rank 0-5 vs non-treated district
Procedure, shortened: (§1)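 Wettable-powder formulations in water with 0.05% surfactant were dripped onto flooded (3 cm) Ube alluvial-soil pots at 500 g/ha, applied at barnyard grass 1.5-leaf stage. Plants were kept in a glasshouse at 25° C. for 3 weeks. Damage was scored 0 (normal) to 5 (all killed) versus untreated plants.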

bulrush = experiment: Herbicidal test for paddy field; assay type: in vivo, Scrips juncoides; details: 500 g/ha, dropwise addition to paddy water at 1.5 leaf stage of barnyard grass; glass house 25° C., 3 weeks; rank 0-5 vs non-treated district
Procedure, shortened: as §1

Cyperus serotinus Rottb. = experiment: Herbicidal test for paddy field; assay type: in vivo; details: 500 g/ha, dropwise addition to paddy water at 1.5 leaf stage of barnyard grass; glass house 25° C., 3 weeks; rank 0-5 vs non-treated district
Procedure, shortened: as §1

arrowhead = experiment: Herbicidal test for paddy field; assay type: in vivo, Sagittaria pygmaea; details: 500 g/ha, dropwise addition to paddy water at 1.5 leaf stage of barnyard grass; glass house 25° C., 3 weeks; rank 0-5 vs non-treated district
Procedure: Wagner pots, each having an area of 1/5000 are, were packed with Ube soil (alluvial soil) and planted with seeds or tubers of young rice plant, barnyard grass, bulrush, Cyperus serotinus Rottb., arrowhead and monochoria. Then, the pots were filled with water to a depth of 3 cm.
Each wettable powder of the desired Compounds (I) shown in Tables 1 to 21, 24, 25, 28 and 29 prepared in accordance with Example 2 was diluted with water containing a surfactant (0.05%) and subjected to dropwise addition treatment by using pipet so that an effective concentration of the compound (I) in each herbicide became 500 g/ha at 1.5 leaf stage of barnyard grass.
(§2) These plants were controlled in a glass house at an average temperature of 25° C. for 3 weeks, and then herbicidal effects thereof were investigated.
(§3) The herbicidal effects are evaluated according to the following 6 ranks as compared with non-treated district. (0: normal development, 1: Less damaged, 2: Slightly damaged, 3: Moderately damaged, 4: Severely damaged, 5: All killed). Incidentally, “-” in the column means not investigated.

corn [2] = experiment: Soil treatment test for upland field; assay type: in vivo; set-up: key: 0 = normal development, 5 = all killed; details: 500 g/ha, 3 weeks, glass house 25° C.
Procedure, shortened: (§4)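 Seeds were sown in alluvial soil in pots, and a wettable powder diluted in water with 0.05% surfactant was sprayed evenly on the soil surface at 500 g/ha. Plants were kept in a glass house at about 25° C for 3 weeks, then damage was scored 0–5 against untreated controls.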

solgum [3] = experiment: Soil treatment test for upland field; assay type: in vivo; set-up: key: 0 = normal development, 5 = all killed; details: 500 g/ha, 3 weeks, glass house 25° C.
Procedure, shortened: as §4

sugar beat [4] = experiment: Soil treatment test for upland field; assay type: in vivo; set-up: key: 0 = normal development, 5 = all killed; details: 500 g/ha, 3 weeks, glass house 25° C.
Procedure, shortened: as §4

wheat [5] = experiment: Soil treatment test for upland field; assay type: in vivo; set-up: key: 0 = normal development, 5 = all killed; details: 500 g/ha, 3 weeks, glass house 25° C.
Procedure, shortened: as §4

[6] = tested on: common Cocklebur (Xanthium strumarium); experiment: Soil treatment test for upland field; assay type: in vivo; details: 500 g/ha, 3 weeks, glass house 25° C.
Procedure: as §3
(§5) Wagner pots, each having an area of 1/5000 are, were packed with Ube soil (alluvial soil), and then each seed of corn, soybean, cotton, wheat, solgum, sugar beat, Large crabgrass, barnyard grass, green foxtail, blackgrass, annual bluegrass, common lambsquarters, livid amaranth, velvetleaf, morning glory, common Cocklebur (Xanthium strumarium) and sicklepod (Cassia obtusifolia) were planted and covered with soil.
(§6) Each wettable powder of the desired compounds (I) shown in Tables 1 to 21, 24, 25, 28 and 29 prepared in accordance with Example 2 was diluted with water containing a surfactant (0.05%) and uniformly sprayed on the surface of each soil so that an effective concentration of the compound (I) in each herbicide became 500 g/ha.
as §2
(§7) The herbicidal effects were evaluated according to the evaluation method described in the above (1).

[7] = tested on: sicklepod (Cassia obtusifolia); experiment: Soil treatment test for upland field; assay type: in vivo; details: 500 g/ha, 3 weeks, glass house 25° C.
Procedure: as §3, §5, §6, §2, §7

Large crabgrass [8] = experiment: Soil treatment test for upland field; assay type: in vivo, Digitaria adscendens; set-up: key: 0 = normal development, 5 = all killed; details: 500 g/ha, 3 weeks, glass house 25° C.
Procedure, shortened: as §4

barnyard grass [9] = experiment: Soil treatment test for upland field; assay type: in vivo, Eschinochloa crusgalli; set-up: key: 0 = normal development, 5 = all killed; details: 500 g/ha, 3 weeks, glass house 25° C.
Procedure, shortened: as §4

green foxtail [10] = experiment: Soil treatment test for upland field; assay type: in vivo, Setaria viridis; set-up: key: 0 = normal development, 5 = all killed; details: 500 g/ha, 3 weeks, glass house 25° C.
Procedure, shortened: as §4

blackgrass [11] = experiment: Soil treatment test for upland field; assay type: in vivo, Alopecurus aegualis; set-up: key: 0 = normal development, 5 = all killed; details: 500 g/ha, 3 weeks, glass house 25° C.
Procedure, shortened: as §4

annual bluegrass [12] = experiment: Soil treatment test for upland field; assay type: in vivo, Poa annua; set-up: key: 0 = normal development, 5 = all killed; details: 500 g/ha, 3 weeks, glass house 25° C.
Procedure, shortened: as §4

common lambsquarters [13] = experiment: Soil treatment test for upland field; assay type: in vivo, Chenopodium album; set-up: key: 0 = normal development, 5 = all killed; details: 500 g/ha, 3 weeks, glass house 25° C.
Procedure, shortened: as §4

livid amaranth [14] = experiment: Soil treatment test for upland field; assay type: in vivo, Amaranthus lividus; set-up: key: 0 = normal development, 5 = all killed; details: 500 g/ha, 3 weeks, glass house 25° C.
Procedure, shortened: as §4

velvetleaf [15] = experiment: Soil treatment test for upland field; assay type: in vivo, Abutilon theophrasti; set-up: key: 0 = normal development, 5 = all killed; details: 500 g/ha, 3 weeks, glass house 25° C.
Procedure, shortened: as §4

morning glory [16] = experiment: Soil treatment test for upland field; assay type: in vivo, Ipomoea spps.; set-up: key: 0 = normal development, 5 = all killed; details: 500 g/ha, 3 weeks, glass house 25° C.
Procedure, shortened: as §4

corn [17] = experiment: Foliar spread test for upland field; assay type: in vivo; set-up: key: 0 = normal development, 5 = all killed (6 ranks vs. untreated); details: foliar spray, 500 ppm, 3 weeks, glass house 25° C.
Procedure, shortened: (§8)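 Scores on a 0–5 scale (0 normal development, 5 all killed), relative to untreated controls, were taken 3 weeks post-treatment in a 25 °C glass house. Treatment was a uniform foliar spray at 500 ppm (0.5% surfactant) onto roughly 2-week-old soil-grown plants.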

cotton = experiment: Foliar spread test for upland field; assay type: in vivo; set-up: key: 0 = normal development, 5 = all killed (6 ranks vs. untreated); details: foliar spray, 500 ppm, 3 weeks, glass house 25° C.
Procedure, shortened: as §8

solgum [18] = experiment: Foliar spread test for upland field; assay type: in vivo; set-up: key: 0 = normal development, 5 = all killed (6 ranks vs. untreated); details: foliar spray, 500 ppm, 3 weeks, glass house 25° C.
Procedure, shortened: as §8

soybean = experiment: Foliar spread test for upland field; assay type: in vivo; set-up: key: 0 = normal development, 5 = all killed (6 ranks vs. untreated); details: foliar spray, 500 ppm, 3 weeks, glass house 25° C.
Procedure, shortened: as §8

sugar beat [19] = experiment: Foliar spread test for upland field; assay type: in vivo; set-up: key: 0 = normal development, 5 = all killed (6 ranks vs. untreated); details: foliar spray, 500 ppm, 3 weeks, glass house 25° C.
Procedure, shortened: as §8

wheat [20] = experiment: Foliar spread test for upland field; assay type: in vivo; set-up: key: 0 = normal development, 5 = all killed (6 ranks vs. untreated); details: foliar spray, 500 ppm, 3 weeks, glass house 25° C.
Procedure, shortened: as §8

Large crabgrass [21] = experiment: Foliar spread test for upland field; assay type: in vivo, Digitaria adscendens; set-up: key: 0 = normal development, 5 = all killed (6 ranks vs. untreated); details: foliar spray, 500 ppm, 3 weeks, glass house 25° C.
Procedure, shortened: as §8

barnyardgrjass = experiment: Foliar spread test for upland field; assay type: in vivo, Eschinochloa crusgalli; set-up: key: 0 = normal development, 5 = all killed (6 ranks vs. untreated); details: foliar spray, 500 ppm, 3 weeks, glass house 25° C.
Procedure, shortened: as §8

green foxtail [22] = experiment: Foliar spread test for upland field; assay type: in vivo, Setaria viridis; set-up: key: 0 = normal development, 5 = all killed (6 ranks vs. untreated); details: foliar spray, 500 ppm, 3 weeks, glass house 25° C.
Procedure, shortened: as §8

blackgrass [23] = experiment: Foliar spread test for upland field; assay type: in vivo, Alopecurus aegualis; set-up: key: 0 = normal development, 5 = all killed (6 ranks vs. untreated); details: foliar spray, 500 ppm, 3 weeks, glass house 25° C.
Procedure, shortened: as §8

annual bluegrass [24] = experiment: Foliar spread test for upland field; assay type: in vivo, Poa annua; set-up: key: 0 = normal development, 5 = all killed (6 ranks vs. untreated); details: foliar spray, 500 ppm, 3 weeks, glass house 25° C.
Procedure, shortened: as §8

common lambsquarters [25] = experiment: Foliar spread test for upland field; assay type: in vivo, Chenopodium album; set-up: key: 0 = normal development, 5 = all killed (6 ranks vs. untreated); details: foliar spray, 500 ppm, 3 weeks, glass house 25° C.
Procedure, shortened: as §8

livid amaranth [26] = experiment: Foliar spread test for upland field; assay type: in vivo, Amaranthus lividus; set-up: key: 0 = normal development, 5 = all killed (6 ranks vs. untreated); details: foliar spray, 500 ppm, 3 weeks, glass house 25° C.
Procedure, shortened: as §8

velvetleaf [27] = experiment: Foliar spread test for upland field; assay type: in vivo, Abutilon theophrasti; set-up: key: 0 = normal development, 5 = all killed (6 ranks vs. untreated); details: foliar spray, 500 ppm, 3 weeks, glass house 25° C.
Procedure, shortened: as §8

morning glory [28] = experiment: Foliar spread test for upland field; assay type: in vivo, Ipomoea spps.; set-up: key: 0 = normal development, 5 = all killed (6 ranks vs. untreated); details: foliar spray, 500 ppm, 3 weeks, glass house 25° C.
Procedure, shortened: as §8

Cassia obtusifolia = experiment: Foliar spread test for upland field; assay type: in vivo; set-up: key: 0 = normal development, 5 = all killed; details: foliar spray, 500 ppm, 3 weeks, glass house 25° C.
Procedure: as §3
(§9) Wagner pots, each having an area of 1/5000 are, were packed with volcanic ash soil and then each seed of corn, soybean, cotton, wheat, solgum, sugar beat, Large crabgrass, barnyardgrjass, green foxtail, blackgrass, annual bluegrass, common lambsquarters, livid amaranth, velvetleaf, morning glory, Xanthium pensylvanicum and Cassia obtusifolia was planted, covered with soil and grown in a glass house at an average temperature of 25° C. for about 2 weeks.
(§10) Each wettable powder of the desired compounds (I) shown in Tables 1 to 21, 24, 25, 28 and 29 prepared in accordance with Example 2 was diluted to 500 ppm with water containing a surfactant (0.5%) and then uniformly sprayed on the above respective plants.
(§11) After these plants were controlled in a glass house at an average temperature of 25° C. for 3 weeks, the herbicidal effects thereof were investigated.
as §7

Xanthium pensylvanicum = experiment: Foliar spread test for upland field; assay type: in vivo; set-up: key: 0 = normal development, 5 = all killed; details: foliar spray, 500 ppm, 3 weeks, glass house 25° C.
Procedure: as §3, §9, §10, §11, §7

SMILES	Effects Barnyardgrass (barnyard grass [1])	Effects Bulrush (bulrush)	Effects Arrowhead (arrowhead)	Effects Corn (corn [2])	Effects Solgum (solgum [3])	Effects Sugar beat (sugar beat [4])	Effects Sicklepod [7]	Effects Large crabgrass (Large crabgrass [8])	Effects Barnyardgrass (barnyard grass [9])	Effects Green foxtail (green foxtail [10])	Effects Blackgrass (blackgrass [11])	Effects Annual bluegrass (annual bluegrass [12])	Effects Common lambsquarters (common lambsquarters [13])	Effects Velvetleaf (velvetleaf [15])	Effects Morning glory (morning glory [16])	Effects Corn (corn [17])	Effects Sotton (cotton)	Effects Solgum (solgum [18])	Effects Soybean (soybean)	Effects Sugar beat (sugar beat [19])	further results
FC(F)(F)c1cccc(Oc2cccc(-c3nc4ccccc4o3)n2)c1 [I-a-1]	4	2	1	0	2	5	3	5	4	5	4	5	5	3	4	2	4	2	5	4	Effects Cyperus serotinus Rottb. (Cyperus serotinus Rottb.): 2; Effects Wheat (wheat [5]): 1; Effects Common Cocklebur [6]: 5; Effects Livid amaranth (livid amaranth [14]): 5; Effects Wheat (wheat [20]): 2; Effects Large crabgrass (Large crabgrass [21]): 4; Effects Barnyardgrass (barnyardgrjass): 3; Effects Green foxtail (green foxtail [22]): 5; Effects Blackgrass (blackgrass [23]): 2; Effects Annual bluegrass (annual bluegrass [24]): 4; Effects Common lambsquarters (common lambsquarters [25]): 5; Effects Livid amaranth (livid amaranth [26]): 5; Effects Velvetleaf (velvetleaf [27]): 4; Effects Morning glory (morning glory [28]): 5; Effects Sicklepod (Cassia obtusifolia): 5; Effects Common Cocklebur (Xanthium pensylvanicum): 4
COc1ccc2oc(-c3cccc(Oc4cccc(C(F)(F)F)c4)n3)nc2c1 [I-a-4]	0	0	0	0	0	0	0	0	3	1	0	0	0	1	1	1	2	1	2	4	Effects Cyperus serotinus Rottb. (Cyperus serotinus Rottb.): 0; Effects Wheat (wheat [20]): 1; Effects Large crabgrass (Large crabgrass [21]): 1; Effects Barnyardgrass (barnyardgrjass): 0; Effects Green foxtail (green foxtail [22]): 1; Effects Blackgrass (blackgrass [23]): 0; Effects Annual bluegrass (annual bluegrass [24]): 1; Effects Common lambsquarters (common lambsquarters [25]): 5; Effects Livid amaranth (livid amaranth [26]): 5; Effects Velvetleaf (velvetleaf [27]): 3; Effects Morning glory (morning glory [28]): 5; Effects Sicklepod (Cassia obtusifolia): 4; Effects Common Cocklebur (Xanthium pensylvanicum): 3
Fc1ccc2oc(-c3cccc(Oc4cccc(C(F)(F)F)c4)n3)nc2c1 [I-a-2]	4	3	1	2	1	5	3	5	4	5	5	5	5	5	5	2	4	2	3	4	Effects Wheat (wheat [5]): 1; Effects Common Cocklebur [6]: 3; Effects Livid amaranth (livid amaranth [14]): 5; Effects Wheat (wheat [20]): 2; Effects Large crabgrass (Large crabgrass [21]): 4; Effects Barnyardgrass (barnyardgrjass): 3; Effects Green foxtail (green foxtail [22]): 5; Effects Blackgrass (blackgrass [23]): 3; Effects Annual bluegrass (annual bluegrass [24]): 4; Effects Common lambsquarters (common lambsquarters [25]): 5; Effects Livid amaranth (livid amaranth [26]): 5; Effects Velvetleaf (velvetleaf [27]): 4; Effects Morning glory (morning glory [28]): 5; Effects Sicklepod (Cassia obtusifolia): 4; Effects Common Cocklebur (Xanthium pensylvanicum): 4
